The values that follow come from ChEMBL document CHEMBL1201862, “PubChem BioAssay data set” (2004).

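Dose response: 5 concentrations. Exposure: 48 h. Format: 96-well plates. Endpoint: linear interpolation; highest concentration if not reached. Abbreviation: GI50, concentration required for 50% inhibition of growth.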 The source made the active and inactive calls. No stated cut-off is given here; in the data, active = GI50 up to about 1.1 µM and inactive = higher. A value given as a limit tells only on which side of the number the result lay.

Assay in all cases: growth of human tumour cells (NCI), 48 h
In assay [1] the test system is 786-0.
Assay [2] concerns A549.
For assay [3], the system named is ACHN.
Assay [4] relates to COLO 205.
Assay [5] relates to HT-29.
Assay [6] relates to Hs-578T.
In assay [7] the test system is M14.
The test system of assay [8] is MDA-MB-231.
Assay [9] concerns MOLT-4.
Assay [10] relates to Malme-3M.
In assay [11] the test system is NCI/ADR-RES.
Assay [12] deals with SF-539.
Assay [13] deals with SK-MEL-5.
The subject of assay [14] is SNB-75.
The subject of assay [15] is SW-620.
The test system of assay [16] is TK-10.
Assay [17] deals with UACC-62.
For assay [18], the system named is HL-60.
Assay [19] concerns NCI-H226.

For the molecule `Nc1ccc2nc(-c3cccc(C(F)(F)F)c3)cc(O)c2c1`, the GI50 in assay [1] is 44.7 µM (inactive); in assay [2] it was 71.4 µM (inactive); in [3], 80.2 µM (inactive); in [4], 27.2 µM (inactive); in assay [5], 34.1 µM (inactive); in [6], 28.9 µM (inactive). In addition, the GI50 is 59.6 µM (inactive) in assay [7]; 50.7 µM (inactive) in assay [8]; 40.4 µM (inactive) in assay [9]; 40.6 µM (inactive) in [10]; 92.9 µM (inactive) in [11]; 19.6 µM (inactive) in assay [12]. Besides, the GI50 was 22.9 µM (inactive) in assay [13]; 27.3 µM (inactive) in assay [14]; 62.1 µM (inactive) in assay [15]; 58.2 µM (inactive) in assay [16]; 53.2 µM (inactive) in assay [17].
Turning to `COc1ccc(OC)c(NC(=O)CCC/C(CC(=O)c2ccc(O)c(OC)c2)=N\NC(=O)C[N+](C)(C)C)c1`, the GI50 in assay [1], in [2], in assay [3], in [4], in [18] and in assay [5] was > 100 µM (inactive) each time. Also, the GI50 in [7], in assay [9], in assay [10], in assay [19], in assay [12] and in [13] was > 100 µM (inactive) throughout. The GI50 in assay [14] is 84.7 µM (inactive); in [15], > 100 µM (inactive); in assay [16], > 100 µM (inactive); in [17], > 100 µM (inactive).
For the molecule `O=C(c1nc2ccc(Cl)cc2[nH]c1=O)C(O)c1ccco1` (stereo not drawn), the GI50 is > 100 µM (inactive) in assay [1]; 50 µM (inactive) in assay [2]; 38.6 µM (inactive) in assay [3]; > 100 µM (inactive) in assay [4]; 6.14 µM (inactive) in [18]; 83.6 µM (inactive) in assay [5]. Further, the GI50 in assay [7] is 29.4 µM (inactive); in [9], 8.57 µM (inactive); in [10], > 100 µM (inactive); in assay [19] it was > 100 µM (inactive); in assay [12] it was 38.1 µM (inactive); in assay [13], 25.5 µM (inactive). Further, the GI50 was > 100 µM (inactive) in assay [14], > 100 µM (inactive) in assay [15], > 100 µM (inactive) in [16] and 40.4 µM (inactive) in assay [17].
For the molecule `COc1ccc(O)c(C(=O)CCC(=O)O)c1`, the GI50 in [1], in assay [2], in assay [3], in [4], in assay [18] and in assay [5] was > 100 µM (inactive) throughout. Moreover, the GI50 in assay [7] was > 10 µM (inactive); in assay [9], > 100 µM (inactive); in assay [10] it was > 100 µM (inactive); in assay [19], > 100 µM (inactive); in assay [12], > 100 µM (inactive); in [13] it was > 100 µM (inactive). Also, the GI50 in [14], in assay [15], in [16] and in [17] was > 100 µM (inactive) in each case.
Consider `CN(C)NC1=C([N+](=O)[O-])C=NN(c2ccccc2)C1`, for which the GI50 in [1] was 1.77 µM (inactive); in [2], 2.1 µM (inactive); in assay [3], 1.73 µM (inactive); in assay [4], 1.79 µM (inactive); in assay [18] it was 2.04 µM (inactive); in assay [5], 1.95 µM (inactive). The GI50 is 1.82 µM (inactive) in assay [7]; 2.09 µM (inactive) in assay [9]; 1.96 µM (inactive) in assay [10]; 3.84 µM (inactive) in [19]; 1.89 µM (inactive) in [12]; 2.56 µM (inactive) in assay [13]. The GI50 in assay [14] is 1.73 µM (inactive); in assay [15], 1.89 µM (inactive); in assay [16], 3.19 µM (inactive); in assay [17], 1.71 µM (inactive).
`[O-][S+]1CSCS1` (stereo not drawn): the GI50 in [1], in assay [2], in assay [3], in [4], in [18] and in [5] was > 100 µM (inactive) in each case. In addition, the GI50 in assay [7], in assay [9], in assay [10], in [19], in [12] and in assay [13] was > 100 µM (inactive) throughout. Besides, the GI50 in [14], in assay [15], in assay [16] and in assay [17] was > 100 µM (inactive) each time.
Take `Cc1cc([N+](=O)[O-])c(S(=O)(=O)c2ccccc2)c([N+](=O)[O-])c1`: the GI50 in assay [1] is 3.95 µM (inactive); in [2] it was 23.6 µM (inactive); in assay [3], 16.5 µM (inactive); in [4] it was 9.51 µM (inactive); in [18], 2.82 µM (inactive); in assay [5], 7.85 µM (inactive). Moreover, the GI50 in assay [7] is 5.93 µM (inactive); in assay [9], 3.39 µM (inactive); in assay [10] it was 13.6 µM (inactive); in assay [19] it was 12.2 µM (inactive); in [12], 12.7 µM (inactive); in [13], 14.2 µM (inactive). Further, the GI50 in [14] is 22.5 µM (inactive); in assay [15], 3.95 µM (inactive); in [16], 17.9 µM (inactive); in assay [17], 7.69 µM (inactive).
Regarding `O=C(O)/C=C\C(=O)c1ccc(Cl)cc1`, the GI50 is 28.9 µM (inactive) in assay [1]; > 100 µM (inactive) in [2]; 21.3 µM (inactive) in assay [3]; 19.6 µM (inactive) in assay [4]; 23.5 µM (inactive) in [18]; 27.2 µM (inactive) in assay [5]. The GI50 in assay [7] is 18.5 µM (inactive); in [9], 24.7 µM (inactive); in assay [10], 18.9 µM (inactive); in [19] it was > 55.8 µM (inactive); in assay [12], 25.1 µM (inactive); in assay [13], > 83.9 µM (inactive). The GI50 in [14] was 44 µM (inactive); in [15], 24 µM (inactive); in [16], 40.5 µM (inactive); in assay [17], 29.9 µM (inactive).
Consider `COc1ccc(C2=C[C@]3(O)CCCN3C[C@@H]2c2ccc(OC)c(OC)c2)cc1`, for which the GI50 in assay [1], in assay [2], in [3], in [4], in assay [18] and in [5] was < 0.0001 µM (active) in each case. In addition, the GI50 in assay [7], in [9], in assay [10], in [19], in assay [12] and in assay [13] was < 0.0001 µM (active) each time. The GI50 in assay [14], in assay [15], in assay [16] and in assay [17] was < 0.0001 µM (active) each time.
On to `COC(=O)c1c(C)oc2ccc(OC(C)=O)cc12`, for which the GI50 in assay [1] was > 100 µM (inactive); in assay [2] it was > 100 µM (inactive); in assay [3], > 100 µM (inactive); in [4], > 100 µM (inactive); in [18], > 100 µM (inactive); in assay [5] it was 83 µM (inactive). Also, the GI50 in [7], in assay [9], in [10], in assay [19], in [12] and in [13] was > 100 µM (inactive) each time. In addition, the GI50 was 34.8 µM (inactive) in assay [14], > 100 µM (inactive) in [15], > 100 µM (inactive) in assay [16] and 97.7 µM (inactive) in assay [17].
For `CC1(Cl)CC2OC3(Br)C=CC(C)(O)C2(CC1Br)C3(C)C` (stereo not drawn), the GI50 in [1] was > 100 µM (inactive); in assay [2], > 100 µM (inactive); in assay [3] it was > 100 µM (inactive); in assay [4], > 100 µM (inactive); in [18], 51.1 µM (inactive); in assay [5], > 100 µM (inactive). Also, the GI50 in [7], in assay [9], in assay [10], in assay [19], in assay [12] and in assay [13] was > 100 µM (inactive) in each case. Moreover, the GI50 in assay [14] was 82.6 µM (inactive); in assay [15] it was > 100 µM (inactive); in assay [16] it was > 100 µM (inactive); in [17], > 100 µM (inactive).
On to `CCCCCC(=O)Nc1nc(O)c2[nH]cnc2n1`, for which the GI50 in assay [1], in assay [2], in assay [3], in assay [4], in assay [18] and in [5] was > 100 µM (inactive) in each case. In addition, the GI50 in [7], in assay [9], in assay [10], in assay [19], in assay [12] and in assay [13] was > 100 µM (inactive) throughout. The GI50 in assay [14], in [15], in assay [16] and in assay [17] was > 100 µM (inactive) throughout.
